Measured values published in patent US10183014B2, “Ocular formulations for drug-delivery and protection of the anterior segment of the eye” (PanOptica, Inc., priority 2014, dated 2019).

Tests used:
[1] = Concentrations of Compound-I in ocular fluids and tissues, 0.4% cyclodextrin solutions, 24-day study; type: in vivo, Dutch-Belted rabbits; settings: 0.4% cyclodextrin-based solutions, twice daily, day 24, 1 hour after first daily dose; for concentration at 1 h: Dutch-Belted, rabbit, topical, 0.4 % (4 mg/mL)
Protocol: The ocular solution of Compound-I comprising cyclodextrin was prepared and tested in different groups of animals.

[2] = Ocular toxicology studies; type: in vivo, beagle dogs
Description: Retinal function was normal in all test article and vehicle treated groups during full-field electroretinograms performed in rabbits.

[3] = Ocular pharmacokinetics of formulations, Example 20-4; type: in vivo, Dutch Belted rabbits; settings: Day 5, 1 hr post dose
Protocol: The study design (Table 18-1) consisted of forty-nine (49) Dutch Belted rabbits, each receiving a 30 μL bilateral topical ocular dose.
Ocular sampling occurred one hour following the first daily dose on Day 5 for all groups. Whole blood samples using K2EDTA as an anticoagulant were collected from all animals on Day 5, 1 hour post dose. The whole blood was placed on ice until samples were spun in a centrifuge to separate the plasma. Aqueous humor, conjunctiva, cornea, central retina, peripheral retina, central choroid, and peripheral choroid samples were collected following necropsy. Samples were then frozen at −70° C. or lower. For all Groups 1-16, plasma, central retina, central choroid, and cornea samples were assayed for PAN-90806.

pathologic angiogenesis [4] = assay: Pathologic angiogenesis, murine cornea model, systemic administration; type: in vivo
pathologic angiogenesis [5] = assay: Pathologic angiogenesis, rat growth plate model, systemic administration; type: in vivo

SMILES: Cl.NC(=O)c1c(OCc2c(F)cc(Br)cc2F)nsc1NC(=O)NCCCCN1CCCC1 [Compound-I, 3-[(4-bromo-2,6-difluorophenyl)methoxy]-5-[[[[4-(1-pyrrolidinyl)butyl]amino]carbonyl]amino]-4-isothiazolecarboxamide hydrochloride]
- Corneal concentration, range over solutions [1]: 6.49 to 30 µM
- concentration at 1 h ([1]; aqueous humor, read-out: Aqueous humor concentration, range over solutions): 2 to 7 nM
- concentration at 1 h ([1]; central retina, read-out: Central retina concentration, range over solutions): 53.1 to 124 nM
- Cornea concentration above which ocular side effects were more consistently observed ([2]; discomfort, inflammation, corneal thinning): exceeded 100 μM
- Corneal tissue exposure ([2]; ophthalmic gel drops, topical ocular dosing): ≥ 100 µM
- concentration at 1 h ([3]; Dutch Belted, rabbit, central choroid, topical, 4 mg/mL (30 μL per eye, bilateral), pH 6, Group 3: 4 mg/mL Salt, eye drops solution (control), pH 6, QD, read-out: Central Choroid concentration): 181 nM
- concentration at 1 h ([3]; Dutch Belted, rabbit, central choroid, topical, 4 mg/mL (30 μL per eye, bilateral), Group 16: 4 mg/mL Salt suspension, PSD 30 μm/XL, TRIS 0.60%, glycerol 2%, HEC 0.2%, HPMC 0.08%, VitK3 1 μM, pH 7, QD, read-out: Central Choroid concentration): 208 nM
- concentration at 1 h ([3]; Dutch Belted, rabbit, central choroid, topical, 30 μL per eye of 4 mg/mL suspension, Group 7: 4 mg/mL Salt suspension, PSD 30 μm/XL, TRIS 0.60%, glycerol 2%, HEC 0.3%, Tylox 0.04%, VitK3 1 μM, pH 6, QD, read-out: Central Choroid concentration): 142 nM
- concentration at 1 h ([3]; Dutch Belted, rabbit, central choroid, topical, 30 μL per eye of 4 mg/mL suspension, Group 9: 4 mg/mL Salt suspension, PSD 30 μm/XL, TRIS 0.60%, glycerol 2%, HEC 0.3%, Tylox 0.04%, VitK3 1 μM, pH 7, QD, read-out: Central Choroid concentration): 224 nM
- concentration at 1 h ([3]; Dutch Belted, rabbit, central choroid, topical, 30 μL per eye of 6 mg/mL suspension, Group 6: 6 mg/mL Salt suspension, PSD 30 μm/XL, TRIS 0.60%, glycerol 2%, HEC 0.2%, HPMC 0.08%, VitK3 1 μM, pH 6, QD, read-out: Central Choroid concentration): 243 nM
- concentration at 1 h ([3]; Dutch Belted, rabbit, central retina, topical, 0.3 mg/mL (30 μL per eye, bilateral), pH 6, Group 1: 0.3 mg/mL Salt, pH 6, BID, read-out: Central Retina concentration): 16.3 nM
- concentration at 1 h ([3]; Dutch Belted, rabbit, central retina, topical, 1 mg/mL (30 μL per eye, bilateral), pH 6, Group 2: 1 mg/mL Salt, eye drops solution (control), pH 6, QD, read-out: Central Retina concentration): 34.7 nM
- concentration at 1 h ([3]; Dutch Belted, rabbit, central retina, topical, 4 mg/mL (30 μL per eye, bilateral), pH 6, Group 3: 4 mg/mL Salt, eye drops solution (control), pH 6, QD, read-out: Central Retina concentration): 83.7 nM
- concentration at 1 h ([3]; Dutch Belted, rabbit, central retina, topical, 4 mg/mL (30 μL per eye, bilateral), Group 16: 4 mg/mL Salt suspension, PSD 30 μm/XL, TRIS 0.60%, glycerol 2%, HEC 0.2%, HPMC 0.08%, VitK3 1 μM, pH 7, QD, read-out: Central Retina concentration): 74.4 nM
- concentration at 1 h ([3]; Dutch Belted, rabbit, central retina, topical, 30 μL per eye of 6 mg/mL suspension, Group 6: 6 mg/mL Salt suspension, PSD 30 μm/XL, TRIS 0.60%, glycerol 2%, HEC 0.2%, HPMC 0.08%, VitK3 1 μM, pH 6, QD, read-out: Central Retina concentration): 136 nM
- concentration at 1 h ([3]; Dutch Belted, rabbit, cornea, topical, 0.3 mg/mL (30 μL per eye, bilateral), pH 6, Group 1: 0.3 mg/mL Salt, pH 6, BID, read-out: Cornea concentration): 3330 nM
- concentration at 1 h ([3]; Dutch Belted, rabbit, cornea, topical, 1 mg/mL (30 μL per eye, bilateral), pH 6, Group 2: 1 mg/mL Salt, eye drops solution (control), pH 6, QD, read-out: Cornea concentration): 7060 nM
- concentration at 1 h ([3]; Dutch Belted, rabbit, cornea, topical, 4 mg/mL (30 μL per eye, bilateral), pH 6, Group 3: 4 mg/mL Salt, eye drops solution (control), pH 6, QD, read-out: Cornea concentration): 15900 nM
- concentration at 1 h ([3]; Dutch Belted, rabbit, cornea, topical, 4 mg/mL (30 μL per eye, bilateral), Group 16: 4 mg/mL Salt suspension, PSD 30 μm/XL, TRIS 0.60%, glycerol 2%, HEC 0.2%, HPMC 0.08%, VitK3 1 μM, pH 7, QD, read-out: Cornea concentration): 14700 nM
- concentration at 1 h ([3]; Dutch Belted, rabbit, cornea, topical, 30 μL per eye of 6 mg/mL suspension, QD, pH 6, Group 6: 6 mg/mL Salt suspension, PSD 30 μm/XL, TRIS 0.60%, glycerol 2%, HEC 0.2%, HPMC 0.08%, VitK3 1 μM, pH 6, QD, read-out: Cornea concentration): 14400 nM
- concentration at 1 h ([3]; Dutch Belted, rabbit, plasma, topical, 1 mg/mL (30 μL per eye, bilateral), pH 6, Group 2: 1 mg/mL Salt, eye drops solution (control), pH 6, QD, read-out: Plasma concentration): 2.67 nM
- concentration at 1 h ([3]; Dutch Belted, rabbit, plasma, topical, 4 mg/mL (30 μL per eye, bilateral), pH 6, Group 3: 4 mg/mL Salt, eye drops solution (control), pH 6, QD, read-out: Plasma concentration): 4.5 nM
- concentration at 1 h ([3]; Dutch Belted, rabbit, plasma, topical, 30 μL per eye of 4 mg/mL suspension, Group 7: 4 mg/mL Salt suspension, PSD 30 μm/XL, TRIS 0.60%, glycerol 2%, HEC 0.3%, Tylox 0.04%, VitK3 1 μM, pH 6, QD, read-out: Plasma concentration): 5.56 nM
- concentration at 1 h ([3]; Dutch Belted, rabbit, plasma, topical, 30 μL per eye of 6 mg/mL suspension, QD, pH 6, Group 6: 6 mg/mL Salt suspension, PSD 30 μm/XL, TRIS 0.60%, glycerol 2%, HEC 0.2%, HPMC 0.08%, VitK3 1 μM, pH 6, QD, read-out: Plasma concentration): 9.98 nM
- Plasma concentration ([3]; Group 1: 0.3 mg/mL Salt, pH 6, BID, LLOQ = 0.00188 μM): <LLOQ
- Central Choroid concentration ([3]; Group 1: 0.3 mg/mL Salt, pH 6, BID, LLOQ = 0.0563 μM): <LLOQ
- concentration at 1 h ([3]; Group 7: 4 mg/mL Salt suspension, PSD 30 μm/XL, TRIS 0.60%, glycerol 2%, HEC 0.3%, Tylox 0.04%, VitK3 1 μM, pH 6, QD, read-out: Central Retina concentration): 69.7 nM
- Plasma concentration ([3]; Group 8: 4 mg/mL Salt suspension, PSD 30 μm/XL, TRIS 0.60%, glycerol 2%, HEC 0.2%, Tylox 0.04%, VitK3 1 μM, pH 6, QD): 6.62 nM
- concentration at 1 h ([3]; Group 8: 4 mg/mL Salt suspension, PSD 30 μm/XL, TRIS 0.60%, glycerol 2%, HEC 0.2%, Tylox 0.04%, VitK3 1 μM, pH 6, QD, read-out: Central Choroid concentration): 152 nM
- concentration at 1 h ([3]; Group 8: 4 mg/mL Salt suspension, PSD 30 μm/XL, TRIS 0.60%, glycerol 2%, HEC 0.2%, Tylox 0.04%, VitK3 1 μM, pH 6, QD, read-out: Central Retina concentration): 90.1 nM
- Plasma concentration ([3]; Group 9: 4 mg/mL Salt suspension, PSD 30 μm/XL, TRIS 0.60%, glycerol 2%, HEC 0.3%, Tylox 0.04%, VitK3 1 μM, pH 7, QD): 7.38 nM
- concentration at 1 h ([3]; Group 9: 4 mg/mL Salt suspension, PSD 30 μm/XL, TRIS 0.60%, glycerol 2%, HEC 0.3%, Tylox 0.04%, VitK3 1 μM, pH 7, QD, read-out: Central Retina concentration): 102 nM
- Plasma concentration ([3]; Group 10: 4 mg/mL Salt suspension, PSD 30 μm/XL, TRIS 0.60%, glycerol 2%, HEC 0.2%, Tylox 0.04%, VitK3 1 μM, pH 7, QD): 5.28 nM
- concentration at 1 h ([3]; Group 10: 4 mg/mL Salt suspension, PSD 30 μm/XL, TRIS 0.60%, glycerol 2%, HEC 0.2%, Tylox 0.04%, VitK3 1 μM, pH 7, QD, read-out: Central Choroid concentration): 166 nM
- concentration at 1 h ([3]; Group 10: 4 mg/mL Salt suspension, PSD 30 μm/XL, TRIS 0.60%, glycerol 2%, HEC 0.2%, Tylox 0.04%, VitK3 1 μM, pH 7, QD, read-out: Central Retina concentration): 50.2 nM
- Plasma concentration ([3]; Group 11: 4 mg/mL Salt suspension, PSD 30 μm/XL, TRIS 0.60%, glycerol 2%, HEC 0.3%, HPMC 0.08%, VitK3 1 μM, pH 6, QD): 4.65 nM
- concentration at 1 h ([3]; Group 11: 4 mg/mL Salt suspension, PSD 30 μm/XL, TRIS 0.60%, glycerol 2%, HEC 0.3%, HPMC 0.08%, VitK3 1 μM, pH 6, QD, read-out: Central Choroid concentration): 154 nM
- concentration at 1 h ([3]; Group 11: 4 mg/mL Salt suspension, PSD 30 μm/XL, TRIS 0.60%, glycerol 2%, HEC 0.3%, HPMC 0.08%, VitK3 1 μM, pH 6, QD, read-out: Central Retina concentration): 79.6 nM
- Plasma concentration ([3]; Group 12: 4 mg/mL Salt suspension, PSD 30 μm/XL, TRIS 0.60%, glycerol 2%, HEC 0.2%, HPMC 0.08%, VitK3 1 μM, pH 6, QD): 3.66 nM
- concentration at 1 h ([3]; Group 12: 4 mg/mL Salt suspension, PSD 30 μm/XL, TRIS 0.60%, glycerol 2%, HEC 0.2%, HPMC 0.08%, VitK3 1 μM, pH 6, QD, read-out: Central Choroid concentration): 137 nM
- concentration at 1 h ([3]; Group 12: 4 mg/mL Salt suspension, PSD 30 μm/XL, TRIS 0.60%, glycerol 2%, HEC 0.2%, HPMC 0.08%, VitK3 1 μM, pH 6, QD, read-out: Central Retina concentration): 49 nM
- Plasma concentration ([3]; Group 13: 4 mg/mL Salt suspension, PSD Native (≈50) μm/XXL, TRIS 0.60%, glycerol 2%, HEC 0.2%, HPMC 0.08%, VitK3 1 μM, pH 6, QD): 5.24 nM
- concentration at 1 h ([3]; Group 13: 4 mg/mL Salt suspension, PSD Native (≈50) μm/XXL, TRIS 0.60%, glycerol 2%, HEC 0.2%, HPMC 0.08%, VitK3 1 μM, pH 6, QD, read-out: Central Choroid concentration): 234 nM
- concentration at 1 h ([3]; Group 13: 4 mg/mL Salt suspension, PSD Native (≈50) μm/XXL, TRIS 0.60%, glycerol 2%, HEC 0.2%, HPMC 0.08%, VitK3 1 μM, pH 6, QD, read-out: Central Retina concentration): 67.7 nM
- Plasma concentration ([3]; Group 14: 4 mg/mL Salt suspension, PSD 3 μm/Large, TRIS 0.60%, glycerol 2%, HEC 0.2%, HPMC 0.08%, VitK3 1 μM, pH 6, QD): 4.99 nM
- concentration at 1 h ([3]; Group 14: 4 mg/mL Salt suspension, PSD 3 μm/Large, TRIS 0.60%, glycerol 2%, HEC 0.2%, HPMC 0.08%, VitK3 1 μM, pH 6, QD, read-out: Central Choroid concentration): 241 nM
- concentration at 1 h ([3]; Group 14: 4 mg/mL Salt suspension, PSD 3 μm/Large, TRIS 0.60%, glycerol 2%, HEC 0.2%, HPMC 0.08%, VitK3 1 μM, pH 6, QD, read-out: Central Retina concentration): 99.2 nM
- Plasma concentration ([3]; Group 15: 4 mg/mL Salt suspension, PSD 30 μm/XL, TRIS 0.60%, glycerol 2%, HEC 0.3%, HPMC 0.08%, VitK3 1 μM, pH 7, QD): 3.25 nM
- concentration at 1 h ([3]; Group 15: 4 mg/mL Salt suspension, PSD 30 μm/XL, TRIS 0.60%, glycerol 2%, HEC 0.3%, HPMC 0.08%, VitK3 1 μM, pH 7, QD, read-out: Central Choroid concentration): 200 nM
- concentration at 1 h ([3]; Group 15: 4 mg/mL Salt suspension, PSD 30 μm/XL, TRIS 0.60%, glycerol 2%, HEC 0.3%, HPMC 0.08%, VitK3 1 μM, pH 7, QD, read-out: Central Retina concentration): 53.2 nM
- Pathologic angiogenesis (pathologic angiogenesis [4]): inhibit
- Pathologic angiogenesis (pathologic angiogenesis [5]): inhibit
